From patent US9527066B2, “Dihydroxybipyridine complexes of ruthenium and iridium for water oxidation and hydrogenation” (The Board of Trustees of The University of Alabama, priority 2011, dated 2016) come the findings set out here.

Read-outs that look alike come from different tables or passages of the source.

A short description of data set [1]: Water oxidation with sodium periodate, Clark electrode. The text has this:
Chem. Soc., 2010, vol. 132, pp. 16017-16029:

For data set [2] the following is noted: for TOF / TON: 5 μM catalyst, 20 mM NaIO4 in 180 mM NaOAc; for Enhancement as pH change from 3 to 6: ratio pH 6 to pH 3. The procedure:
Catalysts of the formula Cp*IrCl(n,n′-DHBP)]Cl according to the present invention were used for water oxidation at a variety of different pH levels. These catalysts were the same catalysts as the first three catalysts used in Example 6.5 μM catalyst with 20 mM NaIO4 in 180 mM NaOAc were employed.

The conditions of data set [3]: 5 μM catalyst; for 10 min: TOF / 10 min: TON / TOF: 20 mM NaIO4, pH 5.6, 25° C.; for TOF / Initial Rate: first 30 sec; for Initial Rate: 20 mM NaIO4, pH 5.6 NaOAc buffer, 25° C.
Method: Catalysts were used for water oxidation with NaIO4 as an oxidant.
20 mM of NaIO4 was added. The pH was 5.6 and NaOAc was used as a buffer. The vessel and catalyst solution were maintained at 25° C.
The conditions of data set [4]: UV-Vis titration, Na2HPO4/HCl buffers pH 2.5-9.2; simultaneous removal of both ligand protons.
Method: Approximately 100 mL of 0.1M Na2HPO4 was put into a beaker and stirred and the pH was recorded. 2 mL of 0.0000034M catalyst was put into 10 mL volumetric flasks (final concentration of Ir complex is 6.8 μM). 100 mL of 0.1M Na2HPO4 was titrated with 0.1M HCl until it reached the desired buffer pH (every 0.5 pH unit). At each desired buffer pH, 8 mL of the solution was put into the volumetric flasks. pH's used were as follows: 9.2, 8.0, 7.5, 7.0, 6.5, 6.0, 5.5, 5.0, 4.5, 4.0, 3.5, 3.0, 2.5. […] UV/Vis spectra for each solution were obtained (FIG. 5).
For data set [5] the following is noted: 5 μM catalyst. The procedure: A catalyst according to the present invention [Cp*Ir^III(DHBP)Cl]Cl was used for water oxidation with cerium (IV) ammonium nitrate (CAN) as the oxidant. The reaction progress was monitored by a Clark electrode to measure the increase in dissolved oxygen with time in a sealed vessel. For longer reaction times, the amount of oxygen that builds up in the headspace is significant and was measured by pressure transducers. In the first set of experiments, the concentration of catalyst was 5 μM and CAN=67 mM at pH=6.0. […] A prior art catalyst, catalyst 15(Cat 15 in FIG. 4, “Cat 15+67 mM CAN”) was used as a comparison. The prior art Cat 15 is represented by the formula taken from Blakemore, et al., “Half-sandwich iridium complexes for homogeneous water-oxidation catalysis,” J. Am. Chem. Soc., 2010, vol. 132, pp. 16017-16029:
In a second set of experiments, the concentration of catalyst was 5 μM. Cat5 was used in a buffered aqueous solution at pH 5.6 with 17 mM sodium periodate as the oxidant, as shown in green in FIG. 4.

The conditions of data set [6]: 17 mM NaIO4 as oxidant, 25° C.
From the text: Rates were most linear from 30 to 240 seconds. […] In this analysis, the slope corresponds to reaction order in Ir catalyst.
Data set [7] in a line: Hydrogenation of acetophenone, comparison of five catalysts. The conditions noted are these: 0.02 mmole catalyst, 85-90° C., 24 hours unless x=18, y=20, z=21 hours. Here is the method: Five catalysts were used to catalyze hydrogenation of acetophenone. The first four are represented by the following structures:
These catalysts are represented as 1-4 in Table 4. The last catalyst is [(η^6-p-cymene)RuCl2]2. The reaction mixture contained 0.02 mmole catalyst, 10 mmole of NaO2CH or 2 mmole of KOH, 0.667 mmole of 1,3,4-trimethoxybenzene as internal standard, and 10 mL solvent. The reaction was carried out under N2 at 85-90° C. for 24 hours unless otherwise stated (x=18 hours, y=20 hours, z=21 hours). The percentage conversion was determined by ^1H-NMR as an average of two trials.

The nature of data set [8]: Hydrogenation of ketones with NaO2CH in MeOH:water. The conditions noted are these: for % conversion: 1 mole % catalyst, 10:90 MeOH:water, NaO2CH, reflux 16-18 hours. Here is the method: (§1) [drawing 11] was used for hydrogenation of several different organic substrates. For ketones, the reaction was carried out by mixing 1 mole % of catalyst, 10:90 of MeOH:water and NaO2CH, and heated to reflux for 16-18 hours. For imines, the reaction was carried out by mixing 1 mole % of catalyst, THF, NEt3 base (5 molar %) and 75 psi H2(g), with heating to reflux for 48 hours. The catalyst provided a very high percentage conversion for ketones in water.

The nature of data set [9]: Hydrogenation of imines with H2 in THF. The conditions noted are these: substrate N-benzylidene-methylamine. Here is the method: as §1
The nature of data set [10]: Hydrogenation of acetophenone under various conditions. The conditions noted are these: 90° C., 16-17 hours. The procedure: [drawing 12] was used to catalyze hydrogenation of acetophenone under various conditions. For each mole of the substrate, 5 moles of a base is used. The reaction is carried out at 90° C. for 16-17 hours.
Where [11] appears, read: first 30 seconds of reaction, 5 μM catalyst, 78 mM CAN, 25° C.
[12] abbreviates: first 10 minutes of reaction, 5 μM catalyst, 78 mM CAN, 25° C.
The mark [13] stands for this setting: 5 μM catalyst, pH 5.6 buffered, 17 mM sodium periodate.
Setting [14] is: substrate 2-methoxy-acetophenone.
Setting [15] is: substrate 4-methoxy-acetophenone.

Take `Cc1c(C)c(C)[c-](C)c1C.[Cl-].[Cl][Ir+2].c1ccc(-c2ccccn2)nc1` [Cat15, reference compound]: in data set [1] (5 μM catalyst, pH 5.6, 17 mM oxidant ("under these conditions")), the “activity in water oxidation (in words)” value was “not active”.

Consider `Cc1c(C)c(C)[c-](C)c1C.Oc1ccnc(-c2cc(O)ccn2)c1.[Cl-].[Cl-].[Ir+3]` [[Cp*IrCl(4,4′-DHBP)]Cl, [Cp*Ir(4,4′-dhbp)Cl]Cl], for which the TOF in [2] (pH = 3 for 10 minutes) stood at 0 min⁻¹; the TOF in data set [2] (pH = 6 for 10 minutes) turned out to be 14 min⁻¹; the TOF under setting [11] was found to be 16.33 ± 12 min⁻¹; the TOF under setting [12] is 4.33 min⁻¹; the TOF in data set [3] was 21.35 ± 3 min⁻¹. The compound also returned a TON in data set [2] (pH = 3 for 10 minutes) of 0, a TON in [2] (pH = 6 for 10 minutes) of 124 and a TON under setting [12] of 43.34. In addition, the “Enhancement as pH change from 3 to 6” value in data set [2] is given as greater than 124X. Moreover, the “Initial Rate” value under setting [11] is on record as 81.25 ± 12 μmole O2 L^−1 min^−1 and the “Initial Rate” value in data set [3] came to 106.25 ± 3 μM O2 min^−1. In addition, the “10 min: TOF” value in data set [3] is 11.87 min⁻¹. The “10 min: TON” value in data set [3] is recorded as 118.70. In addition, in data set [4], the pKa is 4.4±0.2.

Regarding `Cc1c(C)c(C)[c-](C)c1C.Oc1cccc(-c2cccc(O)n2)n1.[Cl-].[Cl][Ir+2]` [[Cp*IrCl(6,6′-DHBP)]Cl, [Cp*Ir(6,6′-DHBP)Cl]Cl], the TOF in data set [2] (pH = 3 for 10 minutes) is 0.14 min⁻¹; the TOF in [2] (pH = 6 for 10 minutes) stood at 14 min⁻¹; the TOF in data set [5] (CAN=67 mM, pH=6.0) was determined as 6.4 min⁻¹; the TOF in [1] (setting [13]) was determined as 6.3 min⁻¹; the TOF in data set [1] (at higher NaIO4 concentrations) was 18 min⁻¹; the TOF under setting [11] was found to be 15.07 ± 15 min⁻¹. This compound also showed a TOF under setting [12] of 3.89 min⁻¹ and a TOF in [3] of 10.04 ± 3 min⁻¹. For the same compound, the TON in data set [2] (pH = 3 for 10 minutes) stood at 1.3; the TON in [2] (pH = 6 for 10 minutes) came to 120; the TON in [5] (in 5 min, CAN=67 mM, pH=6.0) came to 14; the TON in [1] (at higher NaIO4 concentrations, in 5 mM (so in the source)) was 84; the TON in data set [1] (in 5 min, 5 μM catalyst, pH 5.6, 17 mM sodium periodate) is 36; the TON under setting [12] came to 38.93. In addition, the “Enhancement as pH change from 3 to 6” value in data set [2] is recorded as 92X. Besides, the “water oxidation (in words)” value in data set [5] (CAN=17 mM) is “does not oxidize water appreciably”. Also, the “initial rate of oxygen evolution” value in data set [5] (CAN=67 mM, pH=6.0) turned out to be 31 µM/min. The “initial rate of oxygen generation” value in [1] (setting [13]) stood at 31 µM/min. The “Initial Rate” value under setting [11] was determined as 75.00 ± 15 μmole O2 L^−1 min^−1 and the “Initial Rate” value in data set [3] was 50 ± 3 μM O2 min^−1. For the same compound, the “10 min: TOF” value in data set [3] was 9.99 min⁻¹. Also, in data set [3], the “10 min: TON” value came out at 99.86. The compound further had a pKa in data set [4] of 4.6±0.1. The “slope of ln(rate) vs. ln([catalyst]) (reaction order in Ir catalyst)” value in data set [6] was determined as 0.94.

Take `Cc1c(C)c(C)[c-](C)c1C.[Cl-].[Cl-].[Ir+3].c1ccc(-c2ccccn2)nc1` [[Cp*IrCl(bipy)]Cl, reference compound]: under “as stated in text of Example 5”, the Initial Rate is recorded as 72±3 mole O2 L^−1 s^−1 and the “turnover frequency (TOF)” value is reported as 14.4±0.7. Further, in data set [3], the “10 min: TOF” value was found to be 0.064 min⁻¹, the “10 min: TON” value is 0.64, the TOF worked out at 0 ± 3 min⁻¹ and the “Initial Rate” value came out at 0 ± 3 μM O2 min^−1.

On to `Cc1ccc(C(C)C)cc1.Cc1ccc(C(C)C)cc1.[Cl][Ru][Cl].[Cl][Ru][Cl]` [[p-cymRuCl2]2, [(η^6-p-cymene)RuCl2]2], for which the “% conversion” value in [7] (KOH, ^1PrOH) worked out at 100%; in [7] (NaO2CH, 10/90 MeOH/H2O), 15%; in [7] (NaO2CH, 50/50 MeOH/H2O), 13%; in data set [7] (NaO2CH, H2O), 13%.

Take `Cc1ccc(C(C)C)cc1.Oc1cccc(-c2cccc(O)n2)n1.[Cl-].[Cl][Ru+]` [drawing 11]: the Turnover frequency in data set [8] (setting [14]) came out at 8.83 h⁻¹; in data set [8] (substrate 2′-acetonaphtone) it was 13.50 h⁻¹; in data set [8] (substrate 4-bromo-acetophenone) it was 16.17 h⁻¹; in [8] (setting [15]), 10.71 h⁻¹; in data set [8] (substrate acetophenone), 16.17 h⁻¹; in data set [9] it was 0.63 h⁻¹. For the same compound, the Turnover number in data set [8] (setting [14]) was determined as 53; in [8] (substrate 2′-acetonaphtone), 81; in data set [8] (substrate 4-bromo-acetophenone), 97; in [8] (setting [15]), 65; in data set [8] (substrate acetophenone), 97; in [9] it was 30. Besides, the “% conversion” value came to 53% in data set [8] (setting [14]); 81% in [8] (substrate 2′-acetonaphtone); 97% in data set [8] (substrate 4-bromo-acetophenone); 65% in data set [8] (setting [15]); 97% in [8] (substrate acetophenone); 30% in data set [9] (1 mole % catalyst, THF, NEt3, 75 psi H2, reflux 48 hours).

As to `Cc1ccc(C(C)C)cc1.Oc1cccc(-c2cccc(O)n2)n1.[Cl-].[Cl][Ru+]` [drawing 12], the “% conversion” value stood at 97% in data set [10] (1 mole % catalyst, NaO2CH, 10/90 MeOH/H2O); 96% in [10] (1 mole % catalyst, NaO2CH, 50/50 MeOH/H2O); 31% in data set [10] (1 mole % catalyst, NaO2CH, H2O); 89% in data set [10] (5 mole % catalyst, NaO2CH, H2O); 89% in data set [10] (5 mole % catalyst, NaO2CH/HO2CH, H2O).

What is called pKa is the pH at which an ionisable group is half protonated. A high value points to a weaker acid or stronger base.
